Measurements as given in patent publication US10829458B2 (Araxes Pharma LLC, priority 2015, dated 2020).

Molecular target: T1, KRAS G12C 1-169, his-tagged protein, GDP-loaded (Homo sapiens, UniProt P01116, G12C)
T1 construct: KRAS G12C 1-169, his-tagged protein, GDP-loaded
Test: Biochemical assay: covalent modification of KRAS G12C measured by mass spectrometry (RapidFire/TOF or Q-Exactive)
Conditions: covalent binding to KRAS G12C
Description: Test compounds were prepared as 10 mM stock solutions in DMSO (Fisher cat #BP-231-100). KRAS G12C 1-169, his-tagged protein, GDP-loaded was diluted to 2 μm in buffer (20 mM Hepes, 150 mM NaCl, 1 mM MgCl2). Compounds were tested for activity as follows:
Compounds were diluted to 50× final test concentration in DMSO in 96-well storage plates. Compound stock solutions were vortexed before use and observed carefully for any sign of precipitation. Dilutions were as follow: • For 100 μM final compound concentration, compounds were diluted to 5000 μM (5 μl 10 mM compound stock+5 μl DMSO and mixed well by pipetting. • For 30 μM final compound concentration, compounds were diluted to 1500 μM (3 μl 10 mM compound stock+17p DMSO) and mixed well by pipetting. • For 10 μM final compound concentration, compounds were diluted to 500 μM (2 μl 10 mM compound stock+38p DMSO) and mixed well by pipetting. 49p of the stock protein solution was added to each well of a 96-well PCR plate (Fisher cat #1423027). 1 μl of the diluted 50× compounds were added to appropriate wells in the PCR plate using 12-channel pipettor. Reactions were mixed carefully and thoroughly by pipetting up/down with a 200·1 multi-channel pipettor. The plate was sealed well with aluminum plate seal, and stored in drawer at room temperature for 30 min, 2 hour or 24 hrs. 5·1 of 2% formic acid (Fisher cat #A117) in DI H2O was then added to each well followed by mixing with a pipette. The plate was then resealed with aluminum seal and stored on dry ice until analyzed as described below.
The above described assays were analyzed by mass spectrometry according to one of the following two procedures:
The MS instrument is set to positive polarity, 2 GHz resolution, and low mass (1700) mode and allowed to equilibrate for 30 minutes. The instrument is then calibrated, switched to acquisition mode and the appropriate method loaded.
After another 30 minute equilibration time, a blank batch (i.e., buffer) is run to ensure equipment is operating properly. The samples are thawed at 37° C. for 10 minutes, briefly centrifuged, and transfer to the bench top. Wells A1 and H12 are spiked with 1 uL 500 uM internal standard peptide, and the plates centrifuged at 2000×g for 5 minutes. The method is then run and masses of each individual well recorded.
The masses (for which integration data is desired) for each well are pasted into the platemap and exported from the analysis. Masses for the internal standards are exported as well. The data at 50 ppm is extracted for the +19 charge state, and identity of well A1 is assigned using the internal standard spike and integrated. Peak data is exported as a TOF list and the above steps are repeated individually, for the +20, 21, 22, 23, 24, and 25 charge states.
The masses and peak intensities of KRAS G12C protein species were measured using a Dionex RSLCnano system (Thermo Scientific) connected to a Q Exactive Plus mass spectrometer (Thermo Scientific).
[…] of sample was each loaded onto a Aeris™ 3.6 μm WIDEPORE C4 200 Å, LC Column 50×2.1 mm column maintained at 40° C. at a flow rate of 600 μl min^−1 with […] (0.1% formic acid in acetonitrile). The liquid chromatography conditions were 20% solvent B for 1 min, 20% to 60% solvent B for 1.5 min, 60% to 90% solvent for 0.5 min, 90% solvent B for 0.2 min, 90% to 20% solvent B for 0.2 min, and then equilibrated for 1.6 min before the following sample injection. The flow rate was maintained at 600 μl min^−1 throughout the sample analysis.
The mass spectrometer was operated in profile mode at a resolution of 17500, 5 microscans, using 50 msec max injection time and an AGC target of 1e6, and a full mass range from 800-1850 m/z was recorded. The HCD trapping gas was optimized for maximum sensitivity for intact proteins. […]

In the case of `C=C(Cl)C(=O)N1CCN(c2nc(OCCN3CCOCC3)nc3c(F)c(-c4cc(O)cc5ccccc45)c(Cl)cc23)CC1` [Example I-73, 2-chloro-1-(4-(6-chloro-8-fluoro-7-(3-hydroxy-naphthalen-1-yl)-2-(2-morpholino-ethoxy)quinazolin-4-yl)piperazin-1-yl)prop-2-en-1-one], the Binding % (compounds of structure (I)) is reported as “+++ (+++ indicates binding activity greater than 90%)”.

In the case of `C=CC(=O)N1CCN(c2nc(N3CC(N(C)C)C3)nc3c(F)c(-c4cc(O)cc5ccccc45)c(Cl)cc23)CC1` [Example I-106, 1-(4-(6-chloro-2-(3-(dimethyl-amino)azetidin-1-yl)-8-fluoro-7-(3-hydroxy-naphthalen-1-yl)quinazolin-4-yl)piperazin-1-yl) prop-2-en-1-one], the Binding % (compounds of structure (I)) is reported as “+++ (+++ indicates binding activity greater than 90%)”.

`C=CC(=O)N1C[C@H](C)N(c2ncnc3c(F)c(-c4c(F)cccc4OC)c(Cl)cc23)C[C@H]1C` [III-2, 1-((2R,5S)-4-(6-chloro-8-fluoro-7-(2-fluoro-6-methoxy-phenyl)quinazolin-4-yl)-2,5-dimethyl-piperazin-1-yl)prop-2-en-1-one] was tested, and the Binding % (compounds of structure (III)) was “+ (+ indicates binding activity up to 50%)”.

With `C=CC(=O)N1CCN(c2nc(OCCS(C)(=O)=O)nc3c(F)c(-c4c(O)cccc4F)c(Cl)cc23)CC1` [Example I-113, 1-(4-(6-chloro-8-fluoro-7-(2-fluoro-6-hydroxyphenyl)-2-(2-(methyl-sulfonyl)ethoxy)quinazolin-4-yl)piperazin-1-yl) prop-2-en-1-one] the Binding % (compounds of structure (I)) was “+++ (+++ indicates binding activity greater than 90%)”.

For `C=CC(=O)N1CCN(c2nc(NC3CCN(C4CC4)CC3)nc3c(F)c(-c4c(O)cccc4F)c(Cl)cc23)CC1` (atropisomer, axis not shown) [Example I-79, (R)-1-(4-(6-chloro-2-(1-cyclopropyl-piperidin-4-ylamino)-8-fluoro-7-(2-fluoro-6-hydroxyphenyl)quinazolin-4-yl)piperazin-1-yl) prop-2-en-1-one], the Binding % (compounds of structure (I)) was “+ (+ indicates binding activity up to 50%)”.

With `C=CC(=O)N1C[C@@H](C)N(c2ncnc3c(F)c(-c4c(O)cccc4F)c(Cl)cc23)[C@@H](C)C1` [III-28, 1-((3R,5S)-4-(6-chloro-8-fluoro-7-(2-fluoro-6-hydroxy-phenyl)quinazolin-4-yl)-3,5-dimethyl-piperazin-1-yl)prop-2-en-1-one] the Binding % (compounds of structure (III)) was “+++ (+++ indicates binding activity greater than 90%)”.

In the case of `C=CC(=O)N1CCN(c2nc(OC3CN(C4CCOCC4)C3)nc3c(F)c(-c4c(O)cccc4F)c(Cl)cc23)CC1` [Example I-186, 1-(4-(6-chloro-8-fluoro-7-(2-fluoro-6-hydroxyphenyl)-2-((1-(tetrahydro-2H-pyran-4-yl)azetidin-3-yl)oxy)quinazolin-4-yl)piperazin-1-yl) prop-2-en-1-one], the Binding % (compounds of structure (I)) is reported as “++ (++ indicates binding activity from 50 to 90%)”.

`C=CC(=O)N1CCN(c2nc(OCCO)nc3c(F)c(-c4cc(O)cc5ccccc45)c(Cl)cc23)CC1` [Example I-83, 1-(4-(6-chloro-8-fluoro-2-(2-hydroxyethoxy)-7-(3-hydroxy-naphthalen-1-yl)quinazolin-4-yl)piperazin-1-yl)prop-2-en-1-one] was tested, and the Binding % (compounds of structure (I)) was “+++ (+++ indicates binding activity greater than 90%)”.

`C=CC(=O)N1CCN(c2nc(N3CC(N(CC)CC)C3)nc3c(F)c(-c4c(C)ccc5[nH]ncc45)c(Cl)cc23)CC1` [Example I-144, 1-(4-(6-chloro-2-(3-(diethylamino)azetidin-1-yl)-8-fluoro-7-(5-methyl-1H-indazol-4-yl)quinazolin-4-yl)piperazin-1-yl) prop-2-en-1-one] was tested, and the Binding % (compounds of structure (I)) was “+++ (+++ indicates binding activity greater than 90%)”.

For `C=CC(=O)N1C[C@@H](C)N(c2ncnc3c(F)c(-c4cc(O)cc5ccccc45)c(Cl)cc23)[C@@H](C)C1` [III-41, 1-((3S,5R)-4-(6-chloro-8-fluoro-7-(3-hydroxy-naphthalen-1-yl)quinazolin-4-yl)-3,5-dimethyl-piperazin-1-yl)prop-2-en-1-one], the Binding % (compounds of structure (III)) was “++ (++ indicates activity from 50% to 90%)”.
